{"source": "patent US20240327506A1", "about": "“METHODS AND COMPOSITION FOR THE SELECTIVE ENHANCEMENT OF ADOPTIVE CELL THERAPY” (MaineHealth, priority 2023, published 2024)", "test_system": "Cem/C1 T-cells", "assay": "Transwell migration of Cem/C1 T-cells through collagen type-IV", "type": "cell-based", "conditions": "peptide, SDF-1", "protocol": "FIGS. 4A-4H. […] Briefly, membranes from transwell migration chambers were coated with either native collagen type-IV or denatured collagen type-IV. T-cell variants were incubated with non-specific control peptide CP, or the RGDKGE (SEQ ID NO: 1)-containing collagen peptide (P2) and seed on the coated transwell membranes. T-cells were allowed to migrate in the presence or absence of SDF-1 added to the lower chamber for approximately 1.5 hours. Cell migration was quantified by counting the number of crystal violet stained cells that had migrated through to the underside of the coated membrane. FIG. 4A. Jurkat T-cell migration through denatured collagen type-IV in the presence of non-specific control peptide CP or RGDKGE (SEQ ID NO: 1)-containing collagen peptide P2 with SDF-1. FIG. 4B. […]\nGiven our new observations, and the fact that many tumor types as well as immunosuppressive macrophages can secrete the small soluble RGDKGE (SEQ ID NO: 1) collagen peptide, we next sought to determine whether this soluble collagen peptide could impact T-cell migration through denatured collagen type-IV, a critical ECM component shown to be selectively enriched in tumor vessels. […] Cell migration was quantified following staining cells with crystal violet (6,8). […]"}
{"sequence": "QGPRGDKGE (CQGPRGDKGEC; Synthetic: Synthetic collagen RGD containing peptide P-2) [Peptide P2, synthetic version of the soluble RGDKGE-containing collagen peptide]", "values": [{"measurement": "Cem/C1 T-cell migration", "setting": "denatured collagen type-IV", "value": "selectively inhibited"}, {"measurement": "Cem/C1 T-cell migration", "setting": "native collagen type-IV", "value": "neither the soluble RGDKGE (SEQ ID NO: 1) collagen peptide P2, nor the non-specific control peptide had any significant effect"}]}
